Data from ChEMBL document CHEMBL1134590, “Determination of the binding specificity of an integral membrane protein by saturation transfer difference NMR: RGD peptide ligands binding to integrin alphaIIbbeta3” (J Med Chem, 2001).

Biological target: Integrin alpha-IIb/beta-3 (Homo sapiens, UniProt P05106+P08514)
Experiment: Inhibition of integrin alphaIIb-beta3 binding
Format: protein-complex assay

Chain of Integrin alpha-IIb/beta-3 (P05106 27-788 limits assumed): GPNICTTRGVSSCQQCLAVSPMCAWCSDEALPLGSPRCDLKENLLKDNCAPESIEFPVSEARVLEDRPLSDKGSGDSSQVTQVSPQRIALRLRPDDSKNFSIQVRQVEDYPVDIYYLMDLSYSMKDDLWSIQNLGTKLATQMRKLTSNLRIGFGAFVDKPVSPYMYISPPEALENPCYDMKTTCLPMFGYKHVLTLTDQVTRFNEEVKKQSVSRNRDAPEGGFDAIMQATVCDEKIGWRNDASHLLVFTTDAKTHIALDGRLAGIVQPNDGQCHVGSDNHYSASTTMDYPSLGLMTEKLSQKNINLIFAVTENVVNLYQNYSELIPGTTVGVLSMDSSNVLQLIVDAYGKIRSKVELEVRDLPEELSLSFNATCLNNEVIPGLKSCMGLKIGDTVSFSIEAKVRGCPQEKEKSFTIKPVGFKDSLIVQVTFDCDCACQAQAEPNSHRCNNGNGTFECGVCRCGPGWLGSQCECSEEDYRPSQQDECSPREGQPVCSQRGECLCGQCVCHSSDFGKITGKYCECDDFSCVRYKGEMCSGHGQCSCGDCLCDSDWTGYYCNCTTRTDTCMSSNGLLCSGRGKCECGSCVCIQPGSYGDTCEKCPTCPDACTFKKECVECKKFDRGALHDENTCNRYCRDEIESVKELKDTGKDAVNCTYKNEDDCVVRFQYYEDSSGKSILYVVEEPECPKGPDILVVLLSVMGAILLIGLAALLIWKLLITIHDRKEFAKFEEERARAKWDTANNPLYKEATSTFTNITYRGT
Chain of Integrin alpha-IIb/beta-3 (P08514 32-887 limits assumed): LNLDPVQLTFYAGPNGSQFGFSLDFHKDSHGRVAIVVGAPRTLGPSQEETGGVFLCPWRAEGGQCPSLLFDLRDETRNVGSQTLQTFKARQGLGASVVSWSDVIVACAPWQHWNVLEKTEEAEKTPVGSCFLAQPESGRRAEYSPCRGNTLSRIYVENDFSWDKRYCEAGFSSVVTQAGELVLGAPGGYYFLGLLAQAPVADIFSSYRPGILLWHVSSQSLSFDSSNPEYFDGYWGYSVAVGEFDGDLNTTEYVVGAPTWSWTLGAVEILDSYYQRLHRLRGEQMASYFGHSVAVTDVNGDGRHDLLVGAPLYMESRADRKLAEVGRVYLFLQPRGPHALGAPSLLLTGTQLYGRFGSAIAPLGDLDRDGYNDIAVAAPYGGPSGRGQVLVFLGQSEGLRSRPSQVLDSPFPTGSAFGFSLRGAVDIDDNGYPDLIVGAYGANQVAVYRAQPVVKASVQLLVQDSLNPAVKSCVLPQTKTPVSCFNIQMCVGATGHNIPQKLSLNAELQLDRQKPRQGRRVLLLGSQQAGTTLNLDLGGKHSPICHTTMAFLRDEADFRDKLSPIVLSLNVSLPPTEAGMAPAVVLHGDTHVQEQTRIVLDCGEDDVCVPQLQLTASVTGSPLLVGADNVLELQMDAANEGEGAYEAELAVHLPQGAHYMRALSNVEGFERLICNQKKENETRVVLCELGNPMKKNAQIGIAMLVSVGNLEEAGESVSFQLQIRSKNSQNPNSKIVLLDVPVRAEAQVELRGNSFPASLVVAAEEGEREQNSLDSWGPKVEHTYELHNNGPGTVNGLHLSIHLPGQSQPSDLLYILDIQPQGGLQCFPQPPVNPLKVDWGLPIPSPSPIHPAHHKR
Chain of Integrin alpha-IIb/beta-3 (P08514 891-1039 limits assumed): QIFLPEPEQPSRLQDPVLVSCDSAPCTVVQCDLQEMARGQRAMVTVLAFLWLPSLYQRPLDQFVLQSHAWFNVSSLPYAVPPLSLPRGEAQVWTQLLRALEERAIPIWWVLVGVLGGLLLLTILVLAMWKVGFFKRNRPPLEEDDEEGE

IC50: > 1000 µM
SMILES: N=C(N)NCCC[C@H](N)C(=O)NCC(=O)N[C@@H](CC(=O)O)C(=O)O
